Experimental data taken from article PMC7683545, “Human TRPC5 structures reveal interaction of a xanthine-based TRPC1/4/5 inhibitor with a conserved lipid binding site” (Communications Biology, 2020).

Assays:
TRPC5 [1] = biological target: T1, TRPC5 (Homo sapiens, UniProt Q9UL62, V455M); assay: Fura-2 intracellular calcium assay in transfected HEK […] cells; type: cell-based
T1 construct: TRPC5-SYFP2, wild-type (contains the previously described V455M)
T1 sequence (Q9UL62 1-973 V455M): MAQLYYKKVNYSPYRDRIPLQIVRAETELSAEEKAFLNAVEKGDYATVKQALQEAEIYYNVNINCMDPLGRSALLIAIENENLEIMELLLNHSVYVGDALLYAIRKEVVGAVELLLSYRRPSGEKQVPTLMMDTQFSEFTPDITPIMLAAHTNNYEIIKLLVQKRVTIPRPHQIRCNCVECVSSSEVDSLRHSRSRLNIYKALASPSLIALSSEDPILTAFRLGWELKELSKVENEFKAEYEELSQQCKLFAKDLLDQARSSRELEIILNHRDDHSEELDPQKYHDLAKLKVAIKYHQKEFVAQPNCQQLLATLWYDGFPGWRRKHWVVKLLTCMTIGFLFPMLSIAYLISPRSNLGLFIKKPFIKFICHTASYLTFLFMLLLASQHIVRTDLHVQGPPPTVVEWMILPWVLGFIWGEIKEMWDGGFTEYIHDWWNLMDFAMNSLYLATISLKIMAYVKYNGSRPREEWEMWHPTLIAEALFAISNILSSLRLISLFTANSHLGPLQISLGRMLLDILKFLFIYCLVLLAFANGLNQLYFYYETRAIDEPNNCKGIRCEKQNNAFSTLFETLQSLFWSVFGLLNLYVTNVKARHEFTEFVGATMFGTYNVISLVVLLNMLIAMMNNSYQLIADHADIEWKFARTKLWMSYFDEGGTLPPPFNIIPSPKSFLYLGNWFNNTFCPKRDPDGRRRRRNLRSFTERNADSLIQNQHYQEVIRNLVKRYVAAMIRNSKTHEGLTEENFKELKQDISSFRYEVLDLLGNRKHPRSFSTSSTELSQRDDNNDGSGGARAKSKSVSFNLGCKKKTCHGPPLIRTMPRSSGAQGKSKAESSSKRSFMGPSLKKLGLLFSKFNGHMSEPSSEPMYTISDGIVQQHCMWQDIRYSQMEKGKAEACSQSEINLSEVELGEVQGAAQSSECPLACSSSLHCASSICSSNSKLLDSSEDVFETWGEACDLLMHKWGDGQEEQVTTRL

TRPC5 [2] = biological target: T2, TRPC5 (Homo sapiens, UniProt Q9UL62, V455M/Q573T); assay: as above; type: cell-based; settings: read-out: AM237 EC50
T2 construct: TRPC5-SYFP2 Q573T
T2 sequence (Q9UL62 1-973 V455M/Q573T): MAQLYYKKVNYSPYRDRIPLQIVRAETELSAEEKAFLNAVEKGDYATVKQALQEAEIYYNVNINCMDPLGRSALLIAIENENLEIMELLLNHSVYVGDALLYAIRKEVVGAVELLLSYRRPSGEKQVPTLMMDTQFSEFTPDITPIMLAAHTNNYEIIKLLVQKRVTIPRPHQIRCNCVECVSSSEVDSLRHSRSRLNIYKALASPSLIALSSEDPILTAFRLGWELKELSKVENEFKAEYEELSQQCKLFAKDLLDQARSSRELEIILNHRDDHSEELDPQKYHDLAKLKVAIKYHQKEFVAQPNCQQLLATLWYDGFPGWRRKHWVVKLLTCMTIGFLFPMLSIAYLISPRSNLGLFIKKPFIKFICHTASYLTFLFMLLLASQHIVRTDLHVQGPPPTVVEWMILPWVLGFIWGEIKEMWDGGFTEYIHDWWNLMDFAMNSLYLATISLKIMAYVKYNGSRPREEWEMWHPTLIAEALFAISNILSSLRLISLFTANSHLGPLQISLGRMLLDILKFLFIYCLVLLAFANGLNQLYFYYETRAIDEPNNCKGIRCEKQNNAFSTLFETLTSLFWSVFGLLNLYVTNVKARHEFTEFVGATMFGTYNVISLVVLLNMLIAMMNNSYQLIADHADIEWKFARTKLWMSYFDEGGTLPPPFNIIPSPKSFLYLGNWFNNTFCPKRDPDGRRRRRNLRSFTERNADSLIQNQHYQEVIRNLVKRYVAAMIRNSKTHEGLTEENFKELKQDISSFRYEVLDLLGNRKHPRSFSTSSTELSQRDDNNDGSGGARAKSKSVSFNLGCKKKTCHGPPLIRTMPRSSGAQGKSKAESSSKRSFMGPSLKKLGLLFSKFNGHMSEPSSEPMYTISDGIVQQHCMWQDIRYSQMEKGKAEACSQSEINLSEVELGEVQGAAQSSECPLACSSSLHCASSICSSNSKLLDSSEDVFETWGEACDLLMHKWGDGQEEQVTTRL

[3] = biological target: T3, TRPC5 (human TRPC5:C5 channel) (Homo sapiens, UniProt Q9UL62, V455M); assay: cryo-EM structure at […] Å; also inhibition of EA-activated channel in HEK […] calcium assay; type: cell-based
T3 construct: MBP-PreS-hTRPC5Δ766–975 (C-terminally truncated), homotetramer
T3 sequence (Q9UL62 1-765 V455M): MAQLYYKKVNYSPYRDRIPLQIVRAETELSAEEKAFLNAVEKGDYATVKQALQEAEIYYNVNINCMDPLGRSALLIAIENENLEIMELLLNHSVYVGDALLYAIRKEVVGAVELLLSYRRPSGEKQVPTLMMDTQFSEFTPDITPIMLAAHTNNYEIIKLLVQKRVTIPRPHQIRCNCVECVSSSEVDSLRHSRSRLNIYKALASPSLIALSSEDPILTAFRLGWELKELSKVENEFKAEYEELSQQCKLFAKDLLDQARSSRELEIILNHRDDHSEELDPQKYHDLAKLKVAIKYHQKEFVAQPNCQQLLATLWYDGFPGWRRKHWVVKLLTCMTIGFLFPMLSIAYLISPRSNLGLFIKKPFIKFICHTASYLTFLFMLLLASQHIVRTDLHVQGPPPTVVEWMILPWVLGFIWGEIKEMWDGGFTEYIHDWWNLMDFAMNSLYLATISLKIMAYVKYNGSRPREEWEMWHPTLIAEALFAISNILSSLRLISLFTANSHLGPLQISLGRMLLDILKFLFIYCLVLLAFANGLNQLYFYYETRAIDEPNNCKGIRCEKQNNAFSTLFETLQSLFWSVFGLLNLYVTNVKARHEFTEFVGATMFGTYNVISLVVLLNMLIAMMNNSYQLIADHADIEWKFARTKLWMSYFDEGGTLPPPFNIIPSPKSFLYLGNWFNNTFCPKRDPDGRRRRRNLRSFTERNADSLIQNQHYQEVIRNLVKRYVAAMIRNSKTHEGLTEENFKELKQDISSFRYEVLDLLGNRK

[4] = biological target: the molecule itself; assay: cryo-EM structure; purified TRPC5 in PMAL-C8 at 2 mg/ml with 100 µM Pico145 (also 1 mg/ml with 50 µM Pico145 or 20 µM ZnCl2); C4 symmetry, also refined with C1

Cn1c(=O)n(CCCO)c(=O)c2c1nc(Oc1ccc(Cl)c(OC(F)(F)F)c1)n2Cc1ccc(Cl)cc1 [AM237]
EC50 (TRPC5 [1]): 10.6 nM | EC50 (TRPC5 [2]): 110 nM

Cn1c(=O)n(CCCO)c(=O)c2c1nc(Oc1cccc(OC(F)(F)F)c1)n2Cc1ccc(Cl)cc1 [Pico145]
IC50 [3]: 4 nM

B1: MBP-PreS-hTRPC5(Δ766–975) (complex, human, UniProt Q9UL62 1-765, looked up)
chain: MAQLYYKKVNYSPYRDRIPLQIVRAETELSAEEKAFLNAVEKGDYATVKQALQEAEIYYNVNINCMDPLGRSALLIAIENENLEIMELLLNHSVYVGDALLYAIRKEVVGAVELLLSYRRPSGEKQVPTLMMDTQFSEFTPDITPIMLAAHTNNYEIIKLLVQKRVTIPRPHQIRCNCVECVSSSEVDSLRHSRSRLNIYKALASPSLIALSSEDPILTAFRLGWELKELSKVENEFKAEYEELSQQCKLFAKDLLDQARSSRELEIILNHRDDHSEELDPQKYHDLAKLKVAIKYHQKEFVAQPNCQQLLATLWYDGFPGWRRKHWVVKLLTCMTIGFLFPMLSIAYLISPRSNLGLFIKKPFIKFICHTASYLTFLFMLLLASQHIVRTDLHVQGPPPTVVEWMILPWVLGFIWGEIKEMWDGGFTEYIHDWWNLMDFAMNSLYLATISLKIMAYVKYNGSRPREEWEMWHPTLIAEALFAISNILSSLRLISLFTANSHLGPLQISLGRMLLDILKFLFIYCLVLLAFANGLNQLYFYYETRAIDEPNNCKGIRCEKQNNAFSTLFETLQSLFWSVFGLLNLYVTNVKARHEFTEFVGATMFGTYNVISLVVLLNMLIAMMNNSYQLIADHADIEWKFARTKLWMSYFDEGGTLPPPFNIIPSPKSFLYLGNWFNNTFCPKRDPDGRRRRRNLRSFTERNADSLIQNQHYQEVIRNLVKRYVAAMIRNSKTHEGLTEENFKELKQDISSFRYEVLDLLGNRK
notes: Transient Receptor Potential Canonical 5 (TRPC5), human, C-terminally truncated (Δ766–975), carries V455M from the PCR template TRPC5-SYFP2; A PreScission protease site (PreS) lies between MBP and TRPC5; MBP, PreS and the first 16 residues of TRPC5 were not resolved in the map; Homotetrameric channel in amphipol PMAL-C8; also called human TRPC5; TRPC5:C5 channel; not shown: MBP, N-terminal, kept
stoichiometry N [4]: 4
